Data reported in ChEMBL document CHEMBL1151317, “A new bromopyrrole alkaloid and the optical resolution of the racemate from the marine sponge homaxinella sp” (1998).
Converted amounts (≈) assume the structure as drawn.

The molecules below were run on P388 (assay: Cytotoxicity against mouse P388 cells). Conditions: read-out: ED50 (the source's name).
Type: functional

Compound | EC50 [µg/mL]
COCNC(=O)c1cc(Br)c(Br)[nH]1 | 21.5 (≈ 68.9 µM)
COC(=O)CC1CNC(=O)c2cc(Br)c(Br)n21 (racemic) | 30 (≈ 82 µM)
O=C1NCC(O)n2c1cc(Br)c2Br (racemic) [LONGAMIDE] | > 100
